Results published in PubChem BioAssay AID1259407 (Chemical Carcinogenesis Research Information System (CCRIS), 2018).
Activity calls are given as the source filed them. How the calls were made is not given here.

System: CCRIS mutagenicity, Ames/micronucleus/aberration tests
Assay: CCRIS mutagenicity studies

Measured: mutagenic call

c1ccc2cc3ccccc3cc2c1
inactive: Test System: AMES SALMONELLA TYPHIMURIUM, Strain/Indicator: TA97, Metabolic Activation: NONE, Method: STANDARD PLATE inactive; negative | Test System: AMES SALMONELLA TYPHIMURIUM, Strain/Indicator: TA98, Metabolic Activation: NONE, Method: PREINCUBATION inactive; negative | Test System: AMES SALMONELLA TYPHIMURIUM, Strain/Indicator: TA98, Metabolic Activation: NONE, Method: STANDARD PLATE inactive; negative | Test System: AMES SALMONELLA TYPHIMURIUM, Strain/Indicator: TA98, Metabolic Activation: RAT LIVER S-9, PHENOBARBITAL AND BETA-NAPHTHOFLAVONE, Method: PREINCUBATION inactive; negative | Test System: AMES SALMONELLA TYPHIMURIUM, Strain/Indicator: TA98, Metabolic Activation: RAT, LIVER, S-9, AROCLOR 1254, Method: STANDARD PLATE inactive; negative | Test System: AMES SALMONELLA TYPHIMURIUM, Strain/Indicator: TA98, Metabolic Activation: RAT, LIVER, S-9, PCB, Method: STANDARD PLATE inactive; negative | Test System: AMES SALMONELLA TYPHIMURIUM, Strain/Indicator: TA100, Metabolic Activation: NONE, Method: STANDARD PLATE inactive; negative | Test System: AMES SALMONELLA TYPHIMURIUM, Strain/Indicator: TA100, Metabolic Activation: RAT LIVER S-9, PHENOBARBITAL AND BETA-NAPHTHOFLAVONE, Method: PREINCUBATION inactive; negative | Test System: AMES SALMONELLA TYPHIMURIUM, Strain/Indicator: TA100, Metabolic Activation: RAT, LIVER, S-9, AROCLOR 1254, Method: STANDARD PLATE inactive; negative | Test System: AMES SALMONELLA TYPHIMURIUM, Strain/Indicator: TA100, Metabolic Activation: RAT, LIVER, S-9, PCB, Method: STANDARD PLATE inactive; negative | Test System: AMES SALMONELLA TYPHIMURIUM, Strain/Indicator: TA1535, Metabolic Activation: NONE, Method: PREINCUBATION inactive; negative | Test System: AMES SALMONELLA TYPHIMURIUM, Strain/Indicator: TA1535, Metabolic Activation: RAT LIVER S-9, PHENOBARBITAL AND BETA-NAPHTHOFLAVONE, Method: PREINCUBATION inactive; negative | Test System: AMES SALMONELLA TYPHIMURIUM, Strain/Indicator: TA1537, Metabolic Activation: NONE, Method: PREINCUBATION inactive; negative | Test System: AMES SALMONELLA TYPHIMURIUM, Strain/Indicator: TA1537, Metabolic Activation: RAT LIVER S-9, PHENOBARBITAL AND BETA-NAPHTHOFLAVONE, Method: PREINCUBATION inactive; negative | Test System: AMES SALMONELLA TYPHIMURIUM, Strain/Indicator: TA1538, Metabolic Activation: NONE, Method: PREINCUBATION inactive; negative | Test System: AMES SALMONELLA TYPHIMURIUM, Strain/Indicator: TA1538, Metabolic Activation: RAT LIVER S-9, PHENOBARBITAL AND BETA-NAPHTHOFLAVONE, Method: PREINCUBATION inactive; negative | Test System: E. COLI, Strain/Indicator: WP2 UVRA, Metabolic Activation: HAMSTER, LIVER, S-9, AROCLOR 1254, Method: STANDARD PLATE inactive; negative | Test System: E. COLI, Strain/Indicator: WP2 UVRA, Metabolic Activation: HAMSTER, LIVER, S-9, Method: STANDARD PLATE inactive; negative | Test System: E. COLI, Strain/Indicator: WP2 UVRA, Metabolic Activation: MOUSE, LIVER, S-9, AROCLOR 1254, Method: STANDARD PLATE inactive; negative | Test System: E. COLI, Strain/Indicator: WP2 UVRA, Metabolic Activation: MOUSE, LIVER, S-9, Method: STANDARD PLATE inactive; negative | Test System: E. COLI, Strain/Indicator: WP2 UVRA, Metabolic Activation: NONE, Method: STANDARD PLATE inactive; negative | Test System: E. COLI, Strain/Indicator: WP2 UVRA, Metabolic Activation: RAT, LIVER, S-9, AROCLOR 1254, Method: STANDARD PLATE inactive; negative | Test System: E. COLI, Strain/Indicator: WP2 UVRA, Metabolic Activation: RAT, LIVER, S-9, Method: STANDARD PLATE inactive; negative | Test System: E.COLI, Strain/Indicator: WP2UVRA, Metabolic Activation: NONE, Method: PREINCUBATION inactive; negative | Test System: E.COLI, Strain/Indicator: WP2UVRA, Metabolic Activation: RAT LIVER S-9, PHENOBARBITAL AND BETA-NAPHTHOFLAVONE, Method: PREINCUBATION inactive; negative | Test System: MOUSE LYMPHOMA, Strain/Indicator: L5178Y (TK+/TK-), Metabolic Activation: NONE, Method: SUSPENSION/PLATE inactive; negative
active: End Point: In vitro chromosomal aberrations, Test System: Chinese hamster lung (CHL/IU) cells, Metabolic Activation: Rat, Liver, S9, Phenobarbital and 5,6-benzoflavone active; positive (structural changes and ploidy). weak response for ploidy. | Test System: AMES SALMONELLA TYPHIMURIUM, Strain/Indicator: TA97, Metabolic Activation: RAT, LIVER, S-9, PCB, Method: STANDARD PLATE active; positive | Test System: MOUSE LYMPHOMA, Strain/Indicator: L5178Y (TK+/TK-), Metabolic Activation: RAT, LIVER, S-9, AROCLOR 1254, Method: SUSPENSION/PLATE active; positive | Test System: MOUSE LYMPHOMA, Strain/Indicator: L5178Y (TK+/TK-), Metabolic Activation: RAT, LIVER, S-9, Method: SUSPENSION/PLATE active; positive

CN=NC(C)(C)OO
active: Test System: AMES SALMONELLA TYPHIMURIUM, Strain/Indicator: TA100, Metabolic Activation: NONE active; positive | Test System: AMES SALMONELLA TYPHIMURIUM, Strain/Indicator: TA102, Metabolic Activation: NONE active; positive | Test System: AMES SALMONELLA TYPHIMURIUM, Strain/Indicator: TA1535, Metabolic Activation: NONE active; positive | Test System: E. COLI, Strain/Indicator: WP2 (HCR-), Metabolic Activation: NONE active; positive
